Assay results from ChEMBL document CHEMBL1201862, “PubChem BioAssay data set” (2004).
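Results reflect a 48-hour exposure of cells in 96-well plates to compound at five concentrations. Abbreviation: GI50, concentration required for 50% inhibition of growth.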 Activity calls are given as the source filed them. No stated cut-off is given here; in the data, active = GI50 up to about 1.1 µM and inactive = higher.

Tests used:
Test in all cases: DTP human tumour cell line panel, 48 h
UO-31 = tested on: UO-31
U-251 = tested on: U-251
HCT-116 = tested on: HCT-116
MOLT-4 = tested on: MOLT-4
UACC-257 = tested on: UACC-257
SW-620 = tested on: SW-620
SF-295 = tested on: SF-295
NCI-H23 = tested on: NCI-H23
HOP-92 = tested on: HOP-92
SNB-75 = tested on: SNB-75
RXF 393 = tested on: RXF 393
SF-268 = tested on: SF-268
RPMI-8226 = tested on: RPMI-8226
SN12C = tested on: SN12C
CAKI-1 = tested on: CAKI-1

Measured: GI50

COc1ccccc1N1C(=O)C2c3[nH]c4ccccc4c3C3CCC(C(C)(C)C)CC3C2C1=O (stereo not drawn)
inactive: UO-31 > 100 µM | U-251 > 100 µM | HCT-116 > 100 µM | MOLT-4 > 100 µM | UACC-257 > 100 µM | SW-620 > 100 µM | SF-295 > 100 µM | NCI-H23 > 100 µM | HOP-92 > 100 µM | SNB-75 > 100 µM | RXF 393 > 100 µM | SF-268 > 100 µM | RPMI-8226 > 100 µM | SN12C > 100 µM

CS(=O)(=O)NNS(=O)(=O)c1ccc(F)cc1
inactive: UO-31 > 100 µM | CAKI-1 > 100 µM | U-251 > 100 µM | HCT-116 > 100 µM | MOLT-4 > 100 µM | UACC-257 > 100 µM | SW-620 > 100 µM | SF-295 > 100 µM | NCI-H23 > 100 µM | SNB-75 > 100 µM | RXF 393 > 100 µM | SF-268 > 100 µM | RPMI-8226 > 100 µM | SN12C > 100 µM

O=C(CC(=O)N1N=C(n2ccc3ccccc32)CC1c1ccccc1)Nc1cccc(Cl)c1 (stereo not drawn)
inactive: UO-31 > 100 µM | U-251 > 100 µM | HCT-116 > 100 µM | MOLT-4 > 100 µM | UACC-257 > 100 µM | SW-620 > 100 µM | SF-295 > 100 µM | NCI-H23 > 100 µM | HOP-92 16 µM | SNB-75 60.4 µM | RXF 393 > 100 µM | SF-268 > 100 µM | RPMI-8226 > 100 µM | SN12C > 100 µM

N#CCCN(c1ccc(/C=N/c2nc(-c3ccccc3)cs2)cc1)S(=O)(=O)c1ccccc1
inactive: UO-31 23.6 µM | CAKI-1 25.8 µM | U-251 > 100 µM | HCT-116 75.3 µM | MOLT-4 44.7 µM | UACC-257 96.4 µM | SW-620 83.8 µM | SF-295 46.2 µM | NCI-H23 78.9 µM | SNB-75 19.2 µM | SF-268 56.1 µM | RPMI-8226 44.4 µM | SN12C 92.5 µM

CC(=O)/C(=C\c1ccccc1)C(=O)Nc1ccccc1
inactive: UO-31 > 100 µM | CAKI-1 > 100 µM | U-251 > 100 µM | HCT-116 > 100 µM | MOLT-4 > 100 µM | UACC-257 > 100 µM | SW-620 > 100 µM | SF-295 44.1 µM | NCI-H23 > 100 µM | HOP-92 > 100 µM | RXF 393 > 100 µM | SF-268 > 100 µM | RPMI-8226 > 100 µM | SN12C > 100 µM

Cc1cc(C)nc(NS(=O)(=O)c2ccc(Nc3c4ccc(Cl)cc4nc4c(C(=O)Nc5ccc(S(N)(=O)=O)cc5)cccc34)cc2)n1
inactive: UO-31 18.6 µM | U-251 14.4 µM | HCT-116 16.6 µM | MOLT-4 9.77 µM | UACC-257 18.8 µM | SF-295 18.2 µM | NCI-H23 15.1 µM | SNB-75 20.3 µM | RXF 393 13.3 µM | SF-268 39.2 µM | RPMI-8226 21.5 µM | SN12C 15 µM

O=C(NN1C(=O)C(Cl)C1c1cccc(Cl)c1)c1ccccc1O (stereo not drawn)
inactive: UO-31 > 100 µM | U-251 > 100 µM | HCT-116 > 100 µM | MOLT-4 > 100 µM | UACC-257 > 100 µM | SF-295 68.4 µM | NCI-H23 > 100 µM | SNB-75 > 100 µM | RXF 393 > 100 µM | SF-268 > 100 µM | SN12C > 100 µM

CC1=C(C(=O)CC(=O)C(=O)Nc2cccc(C)c2C)Sc2ccccc2N1
inactive: UO-31 > 100 µM | CAKI-1 > 100 µM | U-251 > 100 µM | HCT-116 > 100 µM | MOLT-4 > 100 µM | UACC-257 > 100 µM | SW-620 > 100 µM | SF-295 > 100 µM | NCI-H23 > 100 µM | HOP-92 > 100 µM | RXF 393 > 100 µM | SF-268 > 100 µM | RPMI-8226 > 100 µM | SN12C > 100 µM

CCCC(C(=O)OC)C1N/C(=N/C#N)N(Cc2ccccc2)C1=O (stereo not drawn)
inactive: UO-31 67.1 µM | CAKI-1 > 100 µM | U-251 > 100 µM | HCT-116 > 100 µM | MOLT-4 > 100 µM | UACC-257 > 100 µM | SW-620 > 100 µM | SF-295 > 100 µM | NCI-H23 > 100 µM | SNB-75 22.9 µM | RXF 393 > 100 µM | SF-268 > 100 µM | RPMI-8226 > 100 µM | SN12C > 100 µM

CCN(CC)CCC1(C2CCCCC2)CCC(=O)NC1=O (stereo not drawn)
inactive: UO-31 > 100 µM | CAKI-1 > 100 µM | U-251 > 100 µM | HCT-116 > 100 µM | MOLT-4 > 100 µM | UACC-257 > 100 µM | SW-620 > 100 µM | SF-295 > 100 µM | NCI-H23 > 100 µM | SNB-75 > 100 µM | RXF 393 > 100 µM | SF-268 > 100 µM | RPMI-8226 > 100 µM | SN12C > 100 µM

O=C1NC(=O)/C(=N\c2cccc3c(=O)[nH][nH]c(=O)c23)C(c2nc3ccccc3s2)C1=O (stereo not drawn)
inactive: UO-31 > 100 µM | CAKI-1 > 100 µM | U-251 > 100 µM | HCT-116 > 100 µM | MOLT-4 71.1 µM | UACC-257 > 100 µM | SW-620 > 100 µM | SF-295 > 100 µM | NCI-H23 > 100 µM | HOP-92 > 100 µM | SNB-75 > 100 µM | RXF 393 > 100 µM | SF-268 > 100 µM | SN12C > 100 µM

COc1ccc(C2NC(c3ccc(OC)cc3)C(C)C(=O)C2C)cc1 (stereo not drawn)
inactive: UO-31 60 µM | U-251 > 100 µM | HCT-116 91.8 µM | MOLT-4 46.7 µM | UACC-257 > 100 µM | SF-295 > 100 µM | NCI-H23 > 100 µM | HOP-92 > 100 µM | SNB-75 34 µM | RXF 393 > 100 µM | SF-268 > 100 µM | RPMI-8226 34.2 µM | SN12C > 100 µM

COc1ccc2c(c1)[n+]([O-])c(-c1ccc(Cl)c(Cl)c1)c(N)[n+]2[O-]
inactive: UO-31 39.7 µM | CAKI-1 37.9 µM | U-251 35.1 µM | HCT-116 42.9 µM | MOLT-4 37.5 µM | UACC-257 16.4 µM | SW-620 38.9 µM | SF-295 78.3 µM | NCI-H23 15.8 µM | HOP-92 > 100 µM | SNB-75 44.7 µM | SF-268 37.1 µM | RPMI-8226 31.3 µM | SN12C 46.1 µM

CCSc1nc2n(c(=S)n1)CCN2C
inactive: UO-31 16.3 µM | CAKI-1 13.5 µM | U-251 19.8 µM | HCT-116 15.7 µM | MOLT-4 12.2 µM | UACC-257 12.1 µM | SW-620 19.7 µM | SF-295 21.9 µM | SNB-75 15.5 µM | RXF 393 7.89 µM | SF-268 27.9 µM | RPMI-8226 22 µM | SN12C 19.6 µM
